Results from patent US12486269B2 (Aconcagua Bio, Inc., priority 2024, dated 2025).

Assays:
[1] = target: T1, human calcitonin receptor (CTR) (Homo sapiens, UniProt P30988); assay: Calcitonin Receptor (CTR) cAMP Assay; assay type: cell-based; settings: COS7-human CTR Clone #2 stable cell line, cAMP dynamic 2 kit, 30 min; read-out: Calcitonin Receptor cAMP Stimulation Activity: EC50
T1 construct: expressed in transfected cells; host or cells: COS-7 (COS7-human CTR Clone #2)
T1 sequence (P30988 25-474): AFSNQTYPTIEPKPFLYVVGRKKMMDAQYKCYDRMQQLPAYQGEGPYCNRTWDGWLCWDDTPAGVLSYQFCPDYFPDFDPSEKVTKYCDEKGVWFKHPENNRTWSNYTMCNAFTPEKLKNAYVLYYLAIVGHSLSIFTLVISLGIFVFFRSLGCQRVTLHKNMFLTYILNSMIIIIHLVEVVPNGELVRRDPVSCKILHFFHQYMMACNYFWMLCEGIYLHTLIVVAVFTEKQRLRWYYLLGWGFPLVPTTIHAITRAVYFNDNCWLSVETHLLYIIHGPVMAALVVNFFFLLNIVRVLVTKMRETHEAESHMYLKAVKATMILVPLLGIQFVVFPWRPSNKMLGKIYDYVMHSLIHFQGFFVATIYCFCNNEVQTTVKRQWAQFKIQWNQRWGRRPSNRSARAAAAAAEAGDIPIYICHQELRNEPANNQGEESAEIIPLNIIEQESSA
Procedure, shortened: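 COS-7 cells stably expressing human CTR (2000 cells/well) were incubated 30 min at 37 °C with 4-fold serially diluted compound in HBSS/20 mM HEPES/0.5 mM IBMX/0.1% casein. cAMP was detected by HTRF (665/615 nm) after 1 h at RT. % activity was normalised to vehicle and positive controls.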

[2] = target: T2, COS-7/AMY3 (human calcitonin receptor (CTR) and RAMP3) (Homo sapiens, UniProt O60896+P30988); assay: Amylin Receptor cAMP Assay I; assay type: cell-based; settings: values marked *: Amylin Receptor cAMP Assay I; COS-7/AMY3 cells, cAMP Hi-range kit, 30 min; read-out: Amylin Receptor cAMP Stimulation Activity: EC50
T2 construct: expressed in transfected cells; host or cells: COS-7
Text: Amylin Receptor cAMP Assay I
AMYRs are heterodimers of the class B calcitonin (CT) G-protein-coupled receptor (CTR) and receptor activity-modifying proteins (RAMPs). All three RAMPs can interact with the CTR and form AMY1, AMY2, AMY3 with RAMP1, RAMP2 and RAMP3, respectively. Like other class B1 GPCRs, the CT receptor family is canonically coupled to Gs-mediated cAMP production, and measurement of cAMP accumulation has been the primary assay used to determine peptide selectivity and potency.
To optimize functional activity directed toward Gαs coupling, COS-7 cells were stably transfected with human calcitonin receptor (CTR) and RAMP3, simultaneously. 100×concentration of compound working solutions were prepared (Agilent Technologies Bravo) with 4-fold serial dilution in 384-well Echo LDV plate (Labcyte, Cat #LP-0200). 100 nL/well 100×concentration of compound working solutions were moved to 384-well white low volume plate (Greiner, Cat #784075) using Labcyte ECHO550. […]
After incubation, the cAMP assay signal was generated using cAMP Hi-range Kit (Cisbio). […] The samples were then incubated at room temperature for 1 hour protected from light. the fluorescence was read at 665 and 615 nm with Reader PerkinElmer EnVision. % Activity=100%×(mean RLU of test sample−mean RLU of vehicle control)/(mean RLU of MAX control−mean RLU of vehicle control)) Amylin Receptor cAMP Assay II

T2 sequence (O60896 24-148, one chain of several): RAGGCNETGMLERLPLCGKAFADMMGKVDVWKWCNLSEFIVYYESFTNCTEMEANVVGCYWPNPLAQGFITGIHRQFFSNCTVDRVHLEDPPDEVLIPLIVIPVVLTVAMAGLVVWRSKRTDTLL

Work on `COc1cccc2c1CC[C@H]2NC(=O)c1ccc(-c2c3c(nc(CCc4ccc(F)cc4)c2-c2noc(=O)[nH]2)[C@@H]2CCCN2C3=O)s1` [Compound 108, 5-((S)-2-(4-fluorophenethyl)-5-oxo-3-(5-oxo-4,5-dihydro-1,2,4-oxadiazol-3-yl)-7,8,9,9a-tetrahydro-5H-pyrido[2,3-a]pyrrolizin-4-yl)-N—((R)-4-methoxy-2,3-dihydro-1H-inden-1-yl)thiophene-2-carboxamide] yielded an EC50 [1] of 2.42 nM and an EC50 [2] of 121 nM.
